Key:
[1] = system: TNFα production in peritoneal murin macrophages stimulated with LPS; experiment: Production of TNFα by peritoneal murine macrophages stimulated with LPS; type: cell-based, mouse; conditions: for Inhibitory effect on TNFα production when added after 4 hours: peptide added 4 hours after LPS; for Inhibitory effect on TNFα production when added up until 1 hour after LPS stimulation: peptide added up until 1 hour after LPS, compared with simultaneous addition; for IC50: peritoneal murin macrophages stimulated with LPS, read-out: IC50 for inhibition of TNFα production; for Highest degree of inhibition of TNFα production: peritoneal murin macrophages, LPS 1 to 10 ng/ml
Method: FIG. 1 represents the production of TNFα by murin macrophages in culture (5×10^5 […]) stimulated with 10 ngr/ml of LPS in presence or absence of 10^−8 M of VIP or PACAP over a period of 24 hours.
FIG. 2 represents the production of TNFα by murin macrophages in culture (5×10^5 cells/ml) after 6 hours of culture with 10 ngr/ml of LPS and to which 10^−8 M of VIP or PACAP is added at different times.
In experiments carried out in vitro VIP and PACAP inhibit the production of TNFα in peritoneal murin macrophages stimulated with LPS. The highest degree of inhibition reaches levels near to 60% and occurs with doses of stimulation between 1 and 10 ng/ml of LPS. The IC50 is around 80 pM, both for VIP and for PACAP and the effect was observed until the end of the experiment (see FIG. 1). The inhibitory effect is the same if both neuropeptides are added up until 1 hour after stimulating the macrophages with LPS, although it reduces progressively until disappearing if added after 4 hours (see FIG. 2).

[2] = system: circulating TNFα; experiment: Levels of circulating TNFα in mice after injection of LPS; type: in vivo; conditions: 2 hours after 25 μgr LPS, simultaneous 5 nmol peptide
Method: In an experiment carried out with mice the levels of circulating TNFα 2 hours after injection of 25 μgr. of LPS approach 4 ngr./ml. Simultaneous administration of 5 nmol of VIP or PACAP reduced said levels by 60%.

[3] = system: IL-6 production in peritoneal murin macrophages stimulated with LPS; experiment: Production of IL-6 by peritoneal murine macrophages stimulated with LPS; type: cell-based, mouse; conditions: for Degree of inhibition of IL-6 production when added after stimulation with LPS: peptide added at different times after LPS; for IC50: peritoneal murin macrophages stimulated with LPS, read-out: IC50 for inhibition of IL-6 production; for Highest degree of inhibition of IL-6 production: peritoneal murin macrophages, LPS 10 ngr./ml
Method: FIG. 3 represents the production of IL-6 by murin macrophages in culture (5×10^5 cells/ml) stimulated with 10 ngr/ml of LPS in presence or absence of 10^−8 M of VIP or PACAP over a period of 24 hours.
FIG. 4 represents the production of IL-6 by murin macrophages in culture (5×10^5 cells/ml) after 6 hours of culture with 10 ngr/ml of LPS and to which 10^−8 M of VIP or PACAP is added at different times.
In experiments carried out in vitro VIP and PACAP inhibit the production of IL-6 in peritoneal murin macrophages stimulated with LPS. The highest degree of inhibition reaches levels near to 90% and occurs with doses of stimulation of 10 ngr./ml of LPS.

[4] = system: circulating IL-6; experiment: Levels of circulating IL-6 in mice after injection of LPS; type: in vivo; conditions: 2 hours after 25 μgr LPS, simultaneous 5 nmol peptide
Method: In an experiment carried out with mice the levels of circulating IL-6 2 hours after injection of 25 μgr. of LPS approach 1.5 ngr./ml Simultaneous administration of 5 nmol of VIP or PACAP reduced said levels by 60% and 75% respectively.

[5] = system: mRNA of TNFα; experiment: Northern blot for TNFα mRNA in LPS-activated macrophages; type: cell-based, Mouse; conditions: macrophages activated with LPS and exposed to peptide
Method: (§1) Mouse macrophages were submitted to the experimental conditions of examples 1 and 3 and their mRNA isolated. This was then analysed using the Northern Blot technique to detect mRNA of TNFα and IL-6.

[6] = system: mRNA of IL-6; experiment: Northern blot for IL-6 mRNA in LPS-activated macrophages; type: cell-based, Mouse; conditions: macrophages activated with LPS and exposed to peptide
Method: as §1

[7] = system: lethal effects of LPS in mice; experiment: Survival of mice injected with a lethal dose of LPS; type: in vivo; conditions: 400 μgr LPS; for Survival rate, administration up to 1 hour after LPS: peptide up to 1 hour after LPS; for Survival rate at the end of the experiment: simultaneous 5 nmol peptide, 4-day period
Method: FIG. 6 represents the survival of mice injected with 400 μgr. of LPS and, either simultaneously or after 30 minutes, 1 or 4 hours, with 5 nmol. of VIP or PACAP. A. Control; B: VIP a 0 h.; C: VIP a 0.5 h; D: VIP a 1 h.; E: VIP a 4 h.;
An experiment was carried out in which the survival over a 4-day period was studied of mice that had been injected with 400 μgr. of LPS. The mortality in these circumstances was 100% after 36 hours. With simultaneous administration of 5 nmol. of VIP or PACAP a survival rate of 60% was attained at the end of the experiment. Administration of neuropeptides up to 1 hour after injection with LPS still gave survival rates near to 50%.

| Substance | Inhibitory effect on TNFα production when added after 4 hours [1] | Inhibitory effect on TNFα production when added up until 1 hour after LPS stimulation [1] | IC50 [1] [nM] | Highest degree of inhibition of TNFα production [1] [%] | Reduction of circulating TNFα levels [2] [%] | Degree of inhibition of IL-6 production when added after stimulation with LPS [3] | IC50 [3] [nM] | Highest degree of inhibition of IL-6 production [3] [%] | Reduction of circulating IL-6 levels [4] [%] | Transcripts for TNFα (Northern blot) [5] | Transcripts for IL-6 (Northern blot) [6] | Survival rate, administration up to 1 hour after LPS [7] [%] | Survival rate at the end of the experiment [7] [%] |
| --- | --- | --- | --- | --- | --- | --- | --- | --- | --- | --- | --- | --- | --- |
| HSDAVFTDNYTRLRKMAVKKYLNSILN [VIP] | disappearing | the same | ~0.08 | ~60 | 60 | progressively less | 0.0086 | ~90 | 60 | absence of transcripts | absence of transcripts | ~50 | 60 |
| PACAP [two molecular forms PACAP-38 and PACAP-27] | disappearing | the same | ~0.08 | ~60 | 60 | progressively less | 0.0086 | ~90 | 75 | absence of transcripts | absence of transcripts | ~50 | 60 |
